Reference: patent publication US4999042A, “Phenyl oximino-acetate fungicides” (Imperial Chemical Industries PLC, priority 1986, dated 1991)
Like-named read-outs stand apart in the source and are kept apart here.

Columns and labels:
Format in all cases: in vivo
[1] = system: Puccinia recondita (wheat); assay: Foliar fungal disease control, Puccinia recondita on wheat
[2] = system: Maize (MZ); assay: Plant growth regulating whole plant screen, maize; conditions: 4000 ppm (4 kg/ha) spray; for P = Phytotoxicity: after 2-6 weeks
Protocol: (§1) This Example illustrates the plant growth regulating properties of compounds 1, 2, 5 and 12-15 of Table I when tested on a whole plant screen against two species of plant. The plant species are identified in Table IV with the leaf stage at which they were sprayed.
(§2) A formulation of each chemical was applied at 4000 ppm (4 kg/ha in a 1000 1/ha field volume) using a tracksprayer and a SS8004E (Teejet) nozzle.
(§3) After spraying, the plants were grown in a glasshouse with 25° C. day/22° C. night temperatures. Supplementary lighting was supplied when necessary to provide an average photoperiod of 16 hours (14 hours minimum).
(§4) After 2-6 weeks in the glasshouse, depending on species and time of year, the plants were visually assessed for morphological characteristics against a control plant sprayed with a blank formulation.

[3] = system: Erysiphe graminis hordei (barley); assay: Foliar fungal disease control, Erysiphe graminis hordei on barley; conditions: inoculated 24 hours before treatment
[4] = system: Venturia inaequalis (apple); assay: Foliar fungal disease control, Venturia inaequalis on apple
[5] = system: Cercospora arachidicola (peanut); assay: Foliar fungal disease control, Cercospora arachidicola on peanut
[6] = system: Pyricularia oryzae (rice)
[7] = system: Plasmopara viticola (vine); assay: Foliar fungal disease control, Plasmopara viticola on vine
[8] = system: Apple (AP); assay: Plant growth regulating whole plant screen, apple; conditions: 4000 ppm (4 kg/ha) spray, visual score after 2-6 weeks
Protocol: as §1, §2, §3, §4

[9] = 100 ppm foliar spray plus root drench approx. 40 ppm a.i./dry soil, 1-2 days before inoculation
[10] = 100 ppm foliar spray plus root drench approx. 40 ppm a.i./dry soil

Compound | disease control grading, PUCCINIA RECONDITA (WHEAT) [1, 9] | I = Interligular or internodal length reduction ([2]; visual score after 2-6 weeks) | R = Retardation ([2]; visual score after 2-6 weeks) | disease control grading, ERYSIPHE GRAMINIS HORDEI (BARLEY) [3, 10] | disease control grading, VENTURIA INAEQUALIS (APPLE) [4, 9] | disease control grading, CERCOSPORA ARACHIDICOLA (PEANUT) [5, 9] | disease control grading, P[…] (RICE) [6, 9] | disease control grading, PLASMOPARA VITICOLA (VINE) [7, 9] | I = Interligular or internodal length reduction [8] | R = Retardation [8] | other results
CON=C(C(=O)OC)c1ccccc1/C=C/c1ccccc1 (single isomer, unassigned) [Compound 1, methyl O-methyl (2-(E)-styrylphenyl)oximino-acetate] | 0 (60-100% of disease on untreated plants) | 3 (61-100%) | 3 (61-100%) | 0 (60-100% of disease on untreated plants) | 3 (trace - 5% of disease on untreated plants) | 0 (60-100% of disease on untreated plants) | 0 (60-100% of disease on untreated plants) | 4 | – | – | P = Phytotoxicity [2]: 1 (less than 10%); A = Apical damage ([2]; visual score after 2-6 weeks): 3 (61-100%); G = Greening effect ([2]; visual score after 2-6 weeks): 2 (31-60%)
CON=C(C(=O)OC)c1ccccc1OC1CCCCC1 (single isomer, unassigned) [Compound 10] | – | – | – | – | – | – | – | – | – | – | disease control grading, PUCCINIA RECONDITA (WHEAT) ([1]; 25 ppm foliar spray only): 3 (trace - 5% of disease on untreated plants); disease control grading, ERYSIPHE GRAMINIS HORDEI (BARLEY) ([3]; 25 ppm foliar spray only): 3 (trace - 5% of disease on untreated plants); disease control grading, VENTURIA INAEQUALIS (APPLE) ([4]; 25 ppm foliar spray only): 2 (6-25% of disease on untreated plants); disease control grading, CERCOSPORA ARACHIDICOLA (PEANUT) ([5]; 25 ppm foliar spray only): 0 (60-100% of disease on untreated plants); disease control grading, P[…] (RICE) ([6]; 25 ppm foliar spray only): 3 (trace - 5% of disease on untreated plants); disease control grading, PLASMOPARA VITICOLA (VINE) ([7]; 25 ppm foliar spray only): 2 (6-25% of disease on untreated plants)
CON=C(C(=O)OC)c1ccccc1Oc1ccc([N+](=O)[O-])cc1 (single isomer, unassigned) [Compound 7] | 0 (60-100% of disease on untreated plants) | – | – | 1 (26-59% of disease on untreated plants) | 3 (trace - 5% of disease on untreated plants) | 0 (60-100% of disease on untreated plants) | 0 (60-100% of disease on untreated plants) | 3 (trace - 5% of disease on untreated plants) | – | – | –
CON=C(C(=O)OC)c1ccccc1NC(=O)c1ccco1 (single isomer, unassigned) [Compound 14] | – | – | – | – | – | – | – | – | 1 (10-30%) | 1 (10-30%) | –
CON=C(C(=O)OC)c1ccccc1NC(=O)c1ccco1 (single isomer, unassigned) [Compound 13] | 0 (60-100% of disease on untreated plants) | 1 (10-30%) | 2 (31-60%) | 0 (60-100% of disease on untreated plants) | – | 2 (6-25% of disease on untreated plants) | 0 (60-100% of disease on untreated plants) | 0 (60-100% of disease on untreated plants) | 1 (10-30%) | 2 (31-60%) | G = Greening effect [8]: 1 (10-30%)
CON=C(C(=O)OC)c1ccccc1N(C)C(=O)c1cccs1 (single isomer, unassigned) [Compound 33] | 0 (60-100% of disease on untreated plants) | – | – | 0 (60-100% of disease on untreated plants) | 4 | 0 (60-100% of disease on untreated plants) | 0 (60-100% of disease on untreated plants) | 0 (60-100% of disease on untreated plants) | – | – | –
CON=C(C(=O)OC)c1ccccc1NC(=O)c1ccccc1 (single isomer, unassigned) [Compound 12] | – | 1 (10-30%) | 2 (31-60%) | – | – | – | – | – | 1 (10-30%) | 2 (31-60%) | G = Greening effect [8]: 1 (10-30%)
CO/N=C(/C(=O)OC)c1ccccc1Oc1ccccc1 [Compound 6, methyl O-methyl(2-phenoxyphenyl)oximino-acetate] | 4 | – | – | 4 | 4 | 3 (trace - 5% of disease on untreated plants) | 3 (trace - 5% of disease on untreated plants) | 4 | – | – | –
CON=C(C(=O)OC)c1ccccc1/C=C/c1ccco1 (single isomer, unassigned) [Compound 3] | 0 (60-100% of disease on untreated plants) | – | – | 0 (60-100% of disease on untreated plants) | 4 | 0 (60-100% of disease on untreated plants) | 0 (60-100% of disease on untreated plants) | 0 (60-100% of disease on untreated plants) | – | – | –
CON=C(C(=O)OC)c1cccc2c1Oc1ccccc1O2 (single isomer, unassigned) [Compound 32] | 4 | – | – | 3 (trace - 5% of disease on untreated plants) | 2 (6-25% of disease on untreated plants) | 1 (26-59% of disease on untreated plants) | 0 (60-100% of disease on untreated plants) | 4 | – | – | –
CON=C(C(=O)OC)c1ccccc1/C=C/c1ccco1 (single isomer, unassigned) [Compound 4] | 4 | – | – | 0 (60-100% of disease on untreated plants) | 4 | 3 (trace - 5% of disease on untreated plants) | 3 (trace - 5% of disease on untreated plants) | 4 | – | – | –
CO/N=C(\C(=O)OC)c1ccccc1Oc1ccccc1 [Compound 5, methyl O-methyl(2-phenoxyphenyl)oximino-acetate] | 0 (60-100% of disease on untreated plants) | 3 (61-100%) | 3 (61-100%) | 3 (trace - 5% of disease on untreated plants) | 3 (trace - 5% of disease on untreated plants) | 0 (60-100% of disease on untreated plants) | 1 (26-59% of disease on untreated plants) | 0 (60-100% of disease on untreated plants) | – | – | P = Phytotoxicity [2]: 1 (less than 10%); A = Apical damage ([2]; visual score after 2-6 weeks): 3 (61-100%)
CON=C(C(=O)OC)c1cccc2c1oc1ccccc12 (single isomer, unassigned) [Compound 18] | 3 (trace - 5% of disease on untreated plants) | – | – | 0 (60-100% of disease on untreated plants) | 4 | 1 (26-59% of disease on untreated plants) | 1 (26-59% of disease on untreated plants) | 4 | – | – | –
CON=C(C(=O)OC)c1cccc2c1oc1ccccc12 (single isomer, unassigned) [Compound 17] | 3 (trace - 5% of disease on untreated plants) | – | – | 0 (60-100% of disease on untreated plants) | 1 (26-59% of disease on untreated plants) | 0 (60-100% of disease on untreated plants) | 0 (60-100% of disease on untreated plants) | 2 (6-25% of disease on untreated plants) | – | – | –
CON=C(C(=O)OC)c1ccccc1/C=C/c1ccccc1 (single isomer, unassigned) [Compound 2, methyl O-methyl (2-(E)-styrylphenyl)oximino-acetate] | 2 (6-25% of disease on untreated plants) | 2 (31-60%) | 2 (31-60%) | 0 (60-100% of disease on untreated plants) | 4 | 0 (60-100% of disease on untreated plants) | 0 (60-100% of disease on untreated plants) | 4 | 1 (10-30%) | 2 (31-60%) | A = Apical damage ([2]; visual score after 2-6 weeks): 2 (31-60%); G = Greening effect [8]: 1 (10-30%)
CON=C(C(=O)OC)c1ccccc1NC(=O)c1cccs1 (single isomer, unassigned) [Compound 15] | – | – | – | – | – | – | – | – | 1 (10-30%) | 1 (10-30%) | G = Greening effect [8]: 1 (10-30%)
